Test results taken from patent publication US20260130888A1, “NOVEL THERAPEUTIC MOLECULE” (Pillai Universal LLC, priority 2022, published 2026).
Entries after “also recorded” stand apart in the source; their conditions may differ. One block for each molecule: values may come before it.

Assays:
[1] = test system: IRS-1, IRS-2, PI3K, Glut4 and Akt; assay: Expression of diabetic-associated gene transcripts in streptozotocin-induced diabetic mice, semiquantitative RT-PCR; assay type: in vivo
Method: One of the mechanisms which can stimulate or enhance glucose uptake in cells is the elevated translocation of glucose transporter 4 (GLUT 4) from the intracellular site to the plasma membrane. […] The expression of diabetic-related, gluconeogenic and glycolytic genes, in streptozotocin-induced diabetic mice, were treated with Compound I was determined using semiquantitative RT-PCR. As the internal control, GAPDH the band density of each target gene normalized to the band density of GAPDH of the sample.

[2] = test system: HFD+STZ type II diabetic mice; assay: Effect on body weight, plasma glucose, total cholesterol and triglyceride levels of HFD+STZ type II diabetic mice; assay type: in vivo, C57BL/6J mice
From the text: Effect of Compound I on body weight, Total cholesterol, Plasma glucose, and triglyceride levels of HFD+STZ type II diabetic mice:
Eight weeks of dietary manipulation with high-fat diet increased the body weight in all the groups when compared to NPD group.
Type 2 diabetes mellitus and its related complications have arisen as serious health problems in modern societies. The cutting edge technology of drug development is to identify small molecule drugs helpful in controlling both diabetes and obesity. In this study, we assess the impact of a small molecule Compound I having insulin mimicking effect by inhibiting PTP-1B and activating IR-β phosphorylation in insulin-sensitive tissues by in vivo animal model. […] The induction of diabetes mellitus in mice confirmed by elevated levels of fasting plasma glucose. Plasma glucose level measured in normal and experimental mice.

db/db diabetic mice [3] = assay: Effect on body weight, total cholesterol, plasma glucose and triglyceride levels of db/db diabetic mice; assay type: in vivo
From the text: Effect of Compound I on Body Weight Total Cholesterol, Plasma Glucose, and Triglyceride Levels of db/db Diabetic Mice
It is well-known that there is an increase of serum lipid concentration in people with diabetes.
db/db mouse is a genetic obesity diabetic animal model produced with the aid of the shortage of leptin receptor. The pathogenesis features of T2DM in db/db mice was similar to those in human type 2 diabetes, including hyperglycemia, obesity, and insulin resistance. Current years, db/db mice have been broadly used in animal experiments to set up the T2DM model. We have investigated whether Compound I include IR activators with insulin-mimetic and insulin-sensitizing activity by means of evaluating their effects on IR signaling. Compound I (100 mg/kg and 200 mg/kg b.wt) treatment for 7 days reduced food consumption and body weight in the db/db mice, an inherited obese animal model (FIG. 5, a-d). […] Based on these findings, further studies on Compound I have been carried out in the subsequent experiments to explore their inhibitory activity against PTP1B.

[4] = test system: IRS-1, IRS-2, PI3K, Glut4, Akt; assay: Liver insulin resistance in C57BL/6J-db/db mice: expression of insulin signaling genes; assay type: in vivo; conditions: vs C57BL/6J-db/db control group, p<0.05
From the text: Effect of Compound I on Liver Insulin Resistance in the C57BL/6J-db/Dbmice
The expression of insulin signaling genes such as IRS-1, IRS-2, PI3K, Glut4, Akt in the livers of the db/db mice reduced noticeably when compared with that of the normal mice. There was a significant enhance within the activation of all the examined genes in the C57BL/6J-db/db treatment group compared to that of normal control group FIG. 8.

p-IRβ, IR = assay: Phosphorylated insulin-signaling molecules in muscles and liver of diabetic mice (discussion); assay type: in vivo; conditions: oral administration, dose-dependent
From the text: (§1) Next, we examine the effect of COMPOUND Ion PTP-1B inhibition and activation of IR-β phosphorylation by PCR and Western blotting studies. In the current study, we used the type 2 diabetic C57BL/6J STZ, HFD+STZ C57BL/6J, db/db mouse model to assess the antihyperglycemic property. […] As shown in FIGS. 6&8, There is a diminish in the tyrosine phosphorylation levels of the IR β- in the skeletal muscle and liver of diabetic mice, involving the PTP1B function in all the diabetic-treated mice. According to Tagami et al. expression of PTP1B activity up regulated in the skeletal muscle and adipose tissue of Otsuka Long-Evans Tokush-in fat rats. Haj et al. established that the hepatic-specific over expression of PTP1B confirmed insulin resistance no longer merely in the liver but also in other tissues in PTP1B knockout mice. For that reason, PTP1B plays a main function in diabetic mice. When PTP1B gets activated, the insulin signaling transduction pathway blocked, and the level of plasma glucose is disturbed, ensuing in the increased plasma glucose level. […] The increased in the tyrosine phosphorylation expression level of the IR β-subunit in the skeletal muscle and liver of Compound I treated diabetic mice point out the enhancement of insulin sensitivity in the entire animal model tested.

inflammatory parameters = assay: Inflammatory mediators in HFD+STZ type II diabetic mice; assay type: in vivo
From the text: FIG. 7 depicts the Insulin mimicking effect of compound I in Liver and skeletal muscle of HFD+STZ type II diabetic mice • a. Insulin Mimetic Effect • b. Inflammatory mediators
(§2) In the insulin signaling pathway, protein tyrosine phosphatase 1B (PTP1B) considered playing a vital role in the intracellular signal transduction process and metabolism. There is compelling confirmation that PTP1B, is principally responsible for the dephosphorylation of insulin receptor (IR-β), as a result, leading to the block of insulin signaling transduction pathway. […] (FIG. 7, a & b)

PI3K, GLUT4 = assay: PI3K and GLUT4 gene expression in diabetic mice (discussion); assay type: in vivo
From the text: as §1, with “tested. […]” for “tested.”

PTP1B [5] = assay: Insulin mimicking effect in liver and skeletal muscle of HFD+STZ mice, PCR analysis: PTP1B; assay type: in vivo; conditions: dose-dependent, p<0.05
From the text: (§3) Insulin Mimicking Effect of Compound I in Liver and Skeletal Muscle of HFD+STZ Type II Diabetic Mice
as §2

PTP1B [6] = assay: Insulin mimicking effect in skeletal muscle and liver of db/db mice, Western blot and PCR: PTP1B; assay type: in vivo; conditions: vs control group, p<0.01
Method: (§4) Insulin Mimicking Effect of COMPOUND I in Skeletal Muscle and Liver of db/db Mice
(§5) To further utilize the insulin mimetic effect of Compound I, the key proteins in PTP1B and PI3K/Akt signaling pathway were evaluated using Western blot and PCR after treatment with Compound I. Western blotting and PCR analysis have been carried out to verify the expression of PTP1B and IR β in skeletal muscle and liver to establish the inhibition effect of Compound I towards PTP1B.

insulin receptor (IR-β) = assay: Insulin mimicking effect in liver and skeletal muscle of HFD+STZ mice, PCR analysis: IR-β; assay type: in vivo; conditions: dose-dependent
From the text: as §3, §2

db/db diabetic mice [7] = assay: Effect on body weight, total cholesterol, plasma glucose and triglyceride levels of db/db diabetic mice; assay type: in vivo; conditions: 100 and 200 mg/kg b.wt, 2 weeks, vs control mice
p-IRβ = target: T1, p-IRβ (Mus musculus, UniProt P15208); assay: Insulin mimicking effect in skeletal muscle and liver of db/db mice, Western blot and PCR: p-IRβ; assay type: in vivo; conditions: vs non-treated control group
T1 construct: from tissue; host or cells: skeletal muscle and liver of db/db mice
Method: as §4, §5

[8] = Metformin 250 mg/kg b.wt, vs diabetic group
[9] = metformin-treated group vs model group
[10] = 14 days after treatment, dose-dependent, vs control mice
[11] = C57BL/6J mice fed high-fat diets, 7 days after injection, vs control mice
[12] = low and high doses (100 and 200 mg/kg), vs diabetic group
[13] = 100 and 200 mg/kg b.wt, treatment for 7 days
[14] = 7 days after treatment, vs control mice
[15] = Compound I, dose-dependent, high dose better (P<0.05)

T1 sequence (P15208 753-1372 limits assumed): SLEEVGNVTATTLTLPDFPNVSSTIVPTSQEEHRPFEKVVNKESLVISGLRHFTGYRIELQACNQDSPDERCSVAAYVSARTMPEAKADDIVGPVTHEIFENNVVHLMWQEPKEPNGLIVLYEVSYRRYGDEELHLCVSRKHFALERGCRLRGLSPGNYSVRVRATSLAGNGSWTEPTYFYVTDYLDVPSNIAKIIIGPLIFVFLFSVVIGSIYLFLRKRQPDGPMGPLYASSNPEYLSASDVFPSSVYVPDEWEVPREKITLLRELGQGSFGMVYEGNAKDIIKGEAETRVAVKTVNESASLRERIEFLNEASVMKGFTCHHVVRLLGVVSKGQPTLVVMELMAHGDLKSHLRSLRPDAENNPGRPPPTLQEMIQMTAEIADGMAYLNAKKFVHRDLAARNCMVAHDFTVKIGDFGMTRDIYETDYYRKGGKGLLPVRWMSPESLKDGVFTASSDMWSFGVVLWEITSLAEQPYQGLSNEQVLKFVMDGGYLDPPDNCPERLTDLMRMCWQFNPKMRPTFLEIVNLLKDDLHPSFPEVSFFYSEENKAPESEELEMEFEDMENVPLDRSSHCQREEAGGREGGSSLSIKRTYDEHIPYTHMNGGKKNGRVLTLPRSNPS
T1 sequence (P15208 28-748 partner limits assumed): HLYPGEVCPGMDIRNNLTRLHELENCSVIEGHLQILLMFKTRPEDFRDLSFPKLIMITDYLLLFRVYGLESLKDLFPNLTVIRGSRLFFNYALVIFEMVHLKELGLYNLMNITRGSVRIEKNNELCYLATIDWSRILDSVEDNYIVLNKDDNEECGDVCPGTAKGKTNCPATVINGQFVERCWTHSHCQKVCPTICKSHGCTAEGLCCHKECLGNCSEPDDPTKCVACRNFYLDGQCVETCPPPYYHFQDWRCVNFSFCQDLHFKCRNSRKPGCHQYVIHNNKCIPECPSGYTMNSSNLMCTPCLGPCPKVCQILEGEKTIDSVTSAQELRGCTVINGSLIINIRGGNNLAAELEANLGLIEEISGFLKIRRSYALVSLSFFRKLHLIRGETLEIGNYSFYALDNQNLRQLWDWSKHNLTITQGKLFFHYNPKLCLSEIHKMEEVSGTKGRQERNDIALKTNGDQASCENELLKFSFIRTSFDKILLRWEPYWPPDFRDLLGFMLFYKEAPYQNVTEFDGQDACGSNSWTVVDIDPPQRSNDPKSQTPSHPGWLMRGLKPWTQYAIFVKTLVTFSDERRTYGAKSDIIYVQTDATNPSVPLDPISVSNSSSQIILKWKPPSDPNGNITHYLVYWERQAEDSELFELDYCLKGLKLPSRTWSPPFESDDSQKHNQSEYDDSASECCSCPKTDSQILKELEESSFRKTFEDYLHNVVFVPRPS

Compound: CN(C)C(=N)N=C(N)N [Metformin, reference compound]
levels of insulin-signaling gene expression ([1]; Metformin-treated groups, skeletal muscle and liver tissue, p<0.05): increased levels
glucose [2, 8]: markedly reduced
total cholesterol [2, 8]: markedly reduced
triglycerides [2, 8]: markedly reduced
serum total cholesterol levels (db/db diabetic mice [3]; [9]): lower than in the model group
serum triglyceride levels (db/db diabetic mice [3]; [9]): lower than in the model group

IR-β levels (insulin receptor (IR-β)): concomitant increase
p-IRβ (p-IRβ): significantly increased
Compound: COc1cc(CO)cc2c1[nH]c1c(/C(C)=C/C(=O)O)cccc12 [Compound I, (2E)-3-[6-(hydroxymethyl)-8-methoxy-9H carbazol-1-yl]but-2-enoic acid]
expression of all genes involved in insulin signaling pathway [4]: notably enhanced
expression of all the gene transcripts, fold increased expression ([1]; Compound I 100 mg/kg, Liver tissue): ~2.5 fold
expression of all the gene transcripts, fold change ([1]; Compound I 100 mg/kg, skeletal muscle): ~3.5 fold change
expression level of proteins (p-IRβ, IR) (p-IRβ, IR): significantly augmented
expression of inflammatory parameters (inflammatory parameters): significantly reduced
PI3K and GLUT4 expression levels (PI3K, GLUT4; in contrast to diabetic mice): enhanced significantly
GLUT4 mRNA expression (PI3K, GLUT4; vs normal control group): extremely expressed
expression of PTP1B (PTP1B [5]): significantly decreased
food intake ([2]; 100 and 200 mg/kg b.wt, C57BL/6J mice fed high-fat diets for 7 days, vs control mice): extensively decreased
Fasting plasma glucose [2, 10]: markedly diminished
insulin levels [2, 10]: markedly diminished; also recorded: markedly reduced
triglyceride levels [2, 10]: markedly diminished; also recorded: markedly reduced
Fasting plasma glucose levels [2, 11]: markedly diminished
insulin levels [2, 11]: markedly diminished
triglyceride levels [2, 11]: markedly diminished
body weights ([2]; C57BL/6J mice fed high-fat diets, 7 days, vs normal control mice): widely dropped
food intake ([2]; Compound I 100 mg/kg and 200 mg/kg b.wt, 14 days, C57BL/6J mice fed high-fat diets, vs control mice, p<0.001): drastically lower
body weights ([2]; Compound I 100 and 200 mg/kg b.wt, 14 days, vs control mice): significantly reduce
decrease in Plasma glucose levels [2, 12]: approximately two fold
decrease in triglycerides levels [2, 12]: approximately two fold
total cholesterol levels reduced [2, 12]: 2.5 fold
plasma glucose level ([2]; oral 100 mg/kg and 200 mg/kg b.wt, STZ-treated diabetic mice): highly significant effect by reducing
PTP1B expression (PTP1B [6]): downregulated substantially
body weights (db/db diabetic mice [7]): significantly decreased
food intake (db/db diabetic mice [7]; p>0.05): extensively lower
free fatty acids levels (db/db diabetic mice [3]; 100 and 200 mg/kg b.wt, 7 days, vs normal control): reduced
body weight (db/db diabetic mice [3]; [13]): reduced
food consumption (db/db diabetic mice [3]; [13]): reduced
Fasting plasma glucose (db/db diabetic mice [3]; [14]): markedly lower; also recorded: reduced
insulin (db/db diabetic mice [3]; [14]): markedly lower; also recorded: reduced
triglyceride levels (db/db diabetic mice [3]; [14]): markedly lower; also recorded: reduced
total cholesterol concentration (db/db diabetic mice [3]; [15]): lowered
triglycerides concentration (db/db diabetic mice [3]; [15]): lowered
